Data on two compounds can be found in patent publication US8084647B2, “Two-photon probe for real-time monitoring of intracellular calcium ions, method for preparing the probe and method for real-time monitoring of intracellular calcium ions using the probe” (Korea University Industry and Academy Cooperation Foundation, priority 2007, dated 2011).

The nature of data set [1]: One-photon absorption and emission spectra, fluorescence quantum yield. It counts as physicochemical. The note with it: for Φ fluorescence quantum yield: ±10%. The method, then:
The absorption spectra of the compound of Formula 7 were recorded on a Hewlett-Packard 8453 diode array spectrophotometer, and the fluorescence spectra of the compound were obtained with Amico-Bowman series 2 luminescence spectrometer with a 1 cm standard quartz cell. The fluorescence quantum yield of the compound was determined by using Coumarin 307 as the reference by the literature method (J. N. Demas, G. A. Crosby, J. Phys. Chem. 1971, 75, 991-1024.).

Data set [2] is described as follows: One-photon fluorescence titration with Ca2+ (Kd^OP, enhancement factor, Hill plot). It counts as binding. The note with it: presence of 39 μM Ca2+. The method, then: A series of calibration solutions containing various [Ca^2+] was prepared by mixing two solutions (solution A containing 10 mM K2EGTA and solution B containing 10 mM CaEGTA) in various ratios. Both solutions contained the compound (1 μM) of Formula 4, 100 mM KCl, 30 mM MOPS, and they were adjusted to pH 7.2.
Then, 203 μl of this solution was discarded and replaced by 203 μl of solution B (39 μM free Ca^2+), and the spectrum was recorded. This brings the CaEGTA concentration to 1.00 mM and the [Ca^2]free to about 0.017 μM with no change in the concentration of the probe or of the total EGTA. The [Ca^2+]free is calculated from the Kd of EGTA for Ca^2+ (150.5 nM) using Equation 2: […]
where F is the observed fluorescence intensity, Fmin is the minimum fluorescence intensity, and Fmax is the maximum fluorescence intensity. The Kd value that best fits the titration curve (FIG. 6) with Equation 5 was calculated by using the Excel program as reported (J. R. Long, R. S. Drago, J. Chem. Ed. 1982, 59, 1037; K. Hirose, J. Incl. Phenom. Macrocycl. Chem. 2001, 39, 193).
The dissociation constants (Kd^OP) were calculated from the fluorescence titration curves (FIG. 6), as reported (J. R. Long, R. S. Drago, J. Chem. Educ. 1982, 59, 1037-1039).

Data set [3] can be described thus: Two-photon excited fluorescence (TPEF) titration with Ca2+ (Kd^TP). It counts as binding. Conditions: estimated from the two-photon titration curve. An excerpt:
In order to determine the Kd^TP for the two-photon process, the TPEF spectra were obtained with a DM IRE2 Microscope (Leica) excited by a mode-locked titanium-sapphire laser source (Coherent Chameleon, 90 MHz, 200 fs) set at wavelength 780 nm and output power 1230 mW, which corresponded to approximately 10 mW average power in the focal plane. The TPEF titration curves (FIG. 6) were obtained and fitted to Equation 3.

Data set [4] in a line: Reactivity for various metal ions (FIG. 10). The text has this:
FIG. 10 is a graph showing the reactivity of the compound of Formula 4 for various metal ions;

Data set [5] is described as follows: Effect of pH on the reactivity (FIG. 11). It counts as physicochemical. The note with it: biologically relevant pH range. An excerpt:
FIG. 11 is a graph showing the effect of pH on the reactivity of the compound of Formula 4;

Data set [6] in a line: Two-photon action spectra / two-photon cross section. The data set is classed as physicochemical. The method, then: Thus, TPM images for samples stained with the compound of Formula 4 would be much brighter than those stained with commercial probe. In addition, the two-photon fluorescence enhancement factor (TFEF) estimated from the two-photon titration curve was 44 (Table 2), a value that allowed detection of Ca^2+ by TPM.
The two-photon cross section (δ) was determined by using femto second (fs) fluorescence measurement technique (S. K. Lee, W. J. Yang, J. J. Choi, C. H. Kim, S.-J, Jeon, B. R. Cho, Org. Lett. 2005, 7, 323-326).

The next data set concerns astrocytes. As to the kind of experiment: Two-photon microscopy of cultured astrocytes. It counts as cell-based, rat. The note with it: cultured astrocytes labeled with 2 μM probe. The method, then:
Astrocytes were taken from cerebral cortices of 1-day-old rats (Sprague-Dawley; SD). Cerebral cortices were dissociated in Hank's balanced salt solution (HBSS; Gibco BRL, Gaithersburg, Md., USA) containing 3 U/ml papain (Worthington Biochemical Corporation, NJ, USA) and plated in 75 mm flasks. To prepare purified astrocytes culture, flasks were shaken for 6 h on a shaker at 37° C., and the floating cells that were displaced into the media were removed. Astrocytes were passaged with 5 min exposure to 0.25% trypsin and replated onto poly-D-lysin-coated glass coverslips at 50˜100 cells/mm^2 and were maintained in Dulbecco's modified Eagle's medium (DMEM; Gibco) supplemented with penicillin/streptomycin and 10% fetal bovine serum (FBS; Gibco) in a CO2 incubator at 37° C. After 7-15 days in vitro, astrocytes were washed three times with serum-free media, and then incubated with 2 μM of the compound of Formula 7 in serum-free media for 20 min at 37° C. The cells were washed three times with phosphate buffered saline (PBS; Gibco) and then imaged after further incubation in colorless serum-free media for 15 min.
The spontaneous increase in [Ca^2+]i also propagated between astrocytes, as indicated by the delayed activity in the neighboring astrocyte (FIGS. 15b and 15d).

The subject of data set [7] is acute rat hypothalamic slice. As to the kind of experiment: Two-photon microscopy of acute rat hypothalamic slices. It counts as cell-based. The method, then:
Slices were prepared from the hippocampi and the hypothalmic of 2-day-old rat (SD). Coronal slices were cut into 400 μm thick using a vibrating-blade microtome in artificial cerebrospinal fluid (ACSF; 138.6 mM NaCl, 3.5 mM KCl, 21 mM NaHCO3, 0.6 mM NaH2PO4, 9.9 mM D-glucose, 1 mM CaCl2, and 3 mM MgCl2). Slices were incubated with the compound (10 μM) of Formula 7 in ACSF bubbled with 95% O2 and 5% CO2 for 30 min at 37° C. Slices were then washed three times with ACSF and transferred to glass-bottomed dishes (MatTek) and observed in a spectral confocal multi photon microscope.

For data set [8] the following is noted: previously reported value, cited from earlier work.
The mark [9] stands for this setting: 30 mM MOPS, 100 mM KCl, 10 mM EGTA, pH 7.2, absence of free Ca2+.
Where [10] appears, read: MOPS buffer pH 7.2, presence of 39 μM free Ca2+.
Where [11] appears, read: prolonged observation time in tissue.

Where two headings read alike, the source gives them in different places.

As for `CC(=O)c1ccc2cc(N(C)CC(=O)Nc3ccc(N(CC(=O)O)CC(=O)O)c(OCCOc4ccccc4N(CC(=O)O)CC(=O)O)c3)ccc2c1` [Formula 4], in [1] (setting [9]), the “λmax^(l) one-photon absorption” value turned out to be 365 nm, the “λmax^fl one-photon emission” value worked out at 498 nm and the “Φ fluorescence quantum yield” value was found to be 0.012. For the same compound, in [1] (setting [10]), the “λmax^(l) one-photon absorption” value stood at 365 nm, the “λmax^fl one-photon emission” value stood at 498 nm and the “Φ fluorescence quantum yield” value was 0.49. Besides, in data set [2], the “FEF^OP fluorescence enhancement factor (F − Fmin)/Fmin, one-photon” value amounted to 40 and the “fluorescence enhancement factor relative to OG1” value is reported as roughly 3 fold. The “FEF^TP two-photon fluorescence enhancement factor” value in [3] is recorded as 44. In data set [4], the “response toward CO^2+” value is “much weaker response”, the “response toward Cu^2+” value is reported as “no response”, the “response toward Fe^2+” value is “much weaker response” and the “response toward Mg^2+” value is recorded as “much weaker response”. For the same compound, in [4], the “response toward Mn^2+” value was “modest response” and the “response toward Zn^2+” value was “modest response”. For the same compound, the pH sensitivity result in [5] was “pH-insensitive”. The “Φδ / TPEF relative to OG1-Ca2+” value in data set [6] (Ca2+ complexes in buffer) came out at 5 fold. In [6] (presence of 39 μM free Ca2+), the “Φδ two-photon action cross section” value amounted to 110 GM and the “λmax^(2) of the two-photon excitation spectra” value is given as 780 nm. Moreover, the “δ peak two-photon cross section” value in [6] (presence of 39 μM free Ca2+, ±15%) amounted to 230 GM. Moreover, the “visualization of calcium waves by TPM” value in the data set with astrocytes was “clearly capable of visualizing the intra- and intercellular calcium waves”. In addition, the “imaging depth in live tissue” value in data set [7] (TPM) is roughly 170 μm. In data set [7] (setting [11]), the photo-stability entry is reported as “high photo-stability” and the photo-toxicity result is given as “low photo-toxicity”.

Consider Oregon Green 488 BAPTA-1 [OG1], for which the “FEF^OP fluorescence enhancement factor (F − Fmin)/Fmin, one-photon” value in data set [8] is 14; in data set [8] (listed as OG1 + Ca^2+), 14^[l]/nd.
